In patent US20190083420A1, “METHODS OF USING (2R, 6R)-HYDROXYN[…] (2S, 6S)-HYDROXYN[…] THE TREATMENT OF DEPRESSION, ANXIETY, ANHEDONIA, FATIGUE, SUICIDAL IDEATION, AND POST TRAUMATIC STRESS DISORDERS” (The Uinited States of America, as represented by the …, priority 2016, published 2019):
Entries after “also recorded” stand apart in the source; their conditions may differ.

How the values were obtained:
mice [1] = assay: Pre-pulse inhibition of acoustic startle; type: in vivo
Excerpt: Mice were individually tested in acoustic startle boxes (SR-LAB, San Diego Instruments). Following drug administration, mice were placed in the startle chamber for a 30-min habituation period. The experiment started with a further 5-min adaptation period during which the mice were exposed to a constant background noise (67 dB), followed by five initial startle stimuli (120 dB, 40 msec duration each). Subsequently, animals were exposed to five different trial types: pulse alone trials (120 dB, 40 msec duration), three pre-pulse trials of 76, 81 and 86 dB of white noise bursts (20 msec duration) preceding a 120 dB pulse by 100 msec, and background (67 dB) no-stimuli trials. Each of these trials was randomly presented five times. Ketamine's dose selection (30 mg/kg) was based on a dose-response study we performed in a previous study. The percentage pre-pulse inhibition (% PPI) was calculated using the following formula: [(magnitude on pulse alone trial—magnitude on pre-pulse+pulse trial)/magnitude on pulse alone trial]×100.

[2] = Tissue distribution of ketamine and metabolites (plasma and brain levels); conditions: brain
Experimental: Mice were euthanized by a 30-sec exposure to 3% isoflurane and decapitated at 10, 30, 60, 240 or 480 minutes following drug administration. Trunk blood was collected in EDTA-containing tubes and centrifuged at 8000 rpm for 6 min (4° C.). Plasma was collected and stored at −80° C. until analysis. Whole brains were simultaneously collected, rinsed with phosphate-buffered saline, immediately frozen in dry ice and stored at −80° C. until analysis.
The concentrations of ketamine and its metabolites in plasma and brain tissue were determined by achiral liquid chromatography-tandem mass spectrometry. For plasma samples, the calibration standards for (R,S)-ketamine, (R,S)-norketamine, (2R,6R;2S,6S)-HNK and (R,S)-DHNK ranged from 10,000 ng/ml to 19 ng/ml. The quantification of (R,S)-ketamine, (R,S)-norketamine, (R,S)-DHNK, and the HNK stereoisomers was accomplished by calculating area ratios using D4-ketamine (10 μl of 10 μg/ml solution) as the internal standard. Whole brains were suspended in 990 μl of water:methanol (3:2, v/v), D4-ketamine (10 μl of 10 μg/ml) added and the resulting mixture homogenized on ice with a polytron homogenizer and centrifuged at 21,000×g for 30 min. The supernatant was collected and processed using 1 ml Oasis HLB solid phase extraction cartridges (Waters Corp., Waltham, Mass.). The cartridges were preconditioned with 1 ml of methanol, followed by 1 ml of water and then 1 ml ammonium acetate [10 mM, pH 9.5]. The supernatants were added to the cartridges, followed by 1 ml of water and the compounds were eluted with 1 ml of methanol. The eluent was transferred to an autosampler vial for analysis. QC standards for the analysis of (R,S)-ketamine, (R,S)-norketamine, (R,S)-DHNK and (2R,6R;2S,6S)-HNK ranged from 10,000 ng/ml to 19 ng/ml, and quantification was accomplished using D4-(R,S)-ketamine as the internal standard. QC standards were prepared daily by adding 10 μl of the appropriate standard solution and 10 μl of internal standard solution (100 ng/ml) to methanol.

male CD-1 mice = assay: Novelty-suppressed feeding (NSF); type: in vivo; conditions: i.p.
Excerpt: Male CD-1 mice (8-10 weeks old, Charles River Laboratories, Mass., USA) were housed in groups of four-five per cage with a constant 12-hour light/dark cycle (lights on/off at 07:00/19:00). Food and water were available ad libitum. Mice acclimatized to the new environment for seven days prior to the start of the experiments. For the whole-cell NMDA current electrophysiological recordings, male Sprague-Dawley rats (housed three per cage; Charles River, Wilmington, Mass.) were used. EPSC recording were done from rats at postnatal day 24-25. All experimental procedures were approved by the University of Maryland, Baltimore Animal Care and Use Committee and were conducted in full accordance with the National Institutes of Health Guide for the Care and Use of Laboratory Animals.
Mice were singly housed and food-deprived for twenty-four hours in freshly-made home-cages. Two normal chow diet pellets were placed on a square food platform (10×10 cm) in the center of an open-field arena (40×40 cm). […] The time needed for the mice to take a bite of food was recorded over a 10 min period by a trained observer blind to the treatment groups. After the test, the mice were returned to their home cage containing pre-weighed food pellets, and latency to bite the food as well as consumption was recorded for a period of 10 min.

mice [3] = assay: Chronic corticosterone-induced anhedonia, sucrose preference test; type: in vivo; conditions: single administration, measured after 24 hours
Experimental: For assessing the baseline sucrose preference, mice were singly housed for 24 hours and presented with two identical bottles containing either tap water or 1% sucrose solution. Following baseline sucrose measurement, mice were re-grouped housed (5 mice per cage) and treated for 4 weeks with corticosterone (25 μg/ml equivalent) given in water bottles. Prior to initiation of any behavioral measurements, animals were weaned off corticosterone treatment; 3 days corticosterone 12.5 μg/ml and 3 days corticosterone 6.25 μg/ml, followed by 1 week of complete withdrawal from the drug. Mice were subsequently singly-housed in freshly-made home cages and provided with two bottles containing either tap water or 1% sucrose solution. Twenty-four hours later, mice that developed anhedonia phenotype (<55% sucrose preference) were treated with saline or (2R,6R)-HNK (10 mg/kg) and sucrose preference measured after an additional 24 hours.

mice [4] = assay: Chronic corticosterone-induced anhedonia, female urine sniffing test; type: in vivo; conditions: single administration, mice with anhedonic phenotype, re-test 24 hours later
Experimental: A separate cohort of mice were treated with the same chronic corticosterone administration paradigm as described above, and 24 hours later assessed for female urine sniffing preference as a measure of hedonic behavior. Mice were singly-housed in freshly-made home cages for a habituation period of 10 min. Subsequently, one plain cotton tip was secured on the center of the cage wall and mice were allowed to sniff and habituate to the tip for a period of 30 min. Then, the plain cotton tip was removed and replaced by two cotton tip applicators one infused with fresh female mouse estrus urine and the other with fresh male mouse urine. These applicators were presented at the same time and secured at the two corners of the cage wall. Sniffing time for both the female and male urine was scored by a trained observer for a period of three minutes.

Row | Compound | startle amplitude in the pre-pulse inhibition task (mice [1]; mouse, in vivo) | brain levels following ketamine administration, female mice compared to males [2] | antidepressant-like effect in novelty-suppressed feeding (latency to feed) (male CD-1 mice) | pre-pulse inhibition (sensorimotor gating) (mice [1]; (2R,6R)-HNK up to 375 mg/kg) | reversal of chronic corticosterone-induced decrease in sucrose preference (mice [3]) | reversal of chronic corticosterone-induced decrease in female urine sniffing preference (mice [4]) | brain hydroxynorketamine levels after administration of (2S,6S)-HNK versus (2R,6R)-HNK [2]
1 | CNC1(c2ccccc2Cl)CCCCC1=O (racemic) [ketamine, (R,S)-ketamine, reference compound] | not affected | equivalent levels | – | – | – | – | –
2 | N[C@@]1(c2ccccc2Cl)CCC[C@@H](O)C1=O [(2R,6R)-HNK, (2R,6R)-2-amino-2-(2-chlorophenyl)-6-hydroxycyclohexanone] | – | – | dose-dependent antidepressant-like effects; also recorded: dose-dependent antidepressant action | did not induce 4e, pre-pulse inhibition deficits; also recorded: did not affect sensorimotor gating; also recorded: did not affect pre-pulse inhibition | reversed chronic corticosterone-induced decreases in sucrose preference; also recorded: reversed chronic corticosterone-induced anhedonia | reversed chronic corticosterone-induced decrease in female urine sniffing preference; also recorded: reversed chronic corticosterone-induced anhedonia | do not result from higher brain levels
